Measurements reported in patent US20080311036A1, “Imaging of Neural and Organ Injury or Damage” (UNIVERSITY OF FLORIDA RESEARCH FOUNDATION, INC., priority 2005, published 2008).

How the values were obtained:
calpain = test: in situ calpain inhibition in SH-SY5Y cells challenged with maitotoxin, SBDP145 by Western blot; type: cell-based; details: SH-SY5Y neuroblastoma cells, maitotoxin 0.3 nM, read-out: IC50 for blocking SBDP145
Experimental: The synthesized promoiety-conjugates Compound 1 and Compound 2, will be tested for oxidation stability at 37° C. in buffer (pH 7.4), rat plasma and rat-brain homogenate to probe the kinetics of the expected conversion to the pyridinium-ion intermediates. […] Compound 1 for calpain and Compound 2 will be further tested in in situ calpain and caspase inhibition analysis in cell culture. This may be important since both proteases are intracellular, so for the in vivo uses of the inhibitor-ligands, compounds must have the ability to penetrate cells and retain potency while inside cells. We will use neuroblastoma cell line SH-SY5Y, which can be manipulated to produce calpain-activation and necrosis with a neurotoxin maitotoxin (0.3 nM, Calbiochem) or caspase activation and apoptosis with calcium-chelator EGTA (5 mM) as we have shown before (McGinnis, Wang, Gnegy, (1999) J. Neurochem. 72, 1853-1863). Importantly the protease-produced spectrin breakdown products SBDP150 and SBDP145 (with maitotoxin) and SBDP150 and SBDP120 (with EGTA) are readily produced and quantitatively detected by Western blot analysis, which parallel the formation of SBDP's in brain injury in vivo. Prototype calpain inhibitor SJA6017 blocked SBDP145 at IC50 of 0.2 μM, while caspase inhibitor z-D-DCB blocks SBDP120 at IC50 of 5 μM. […]

[1] = in vivo half-life after intravenous administration
Experimental: To enhance the brain residency of the selected “inhibitor-ligands,” a pro-drug strategy that promotes the “trapping” of their precursors in the CNS are evaluated (Prokai et al., 2000). […] The following scheme outlines the method employed to the selected inhibitor-ligands (see FIG. 5).

[2] = known calpain inhibitors; cited from earlier work

| Compound | IC50 (calpain) [nM] | in vivo half-life [1] | crossing of cell membranes [2] |
| --- | --- | --- | --- |
| CC(C)C[C@@H](C=O)NC(=O)[C@@H](NS(=O)(=O)c1ccc(F)cc1)C(C)C [SJA-6017] | 200 | ca. 11 min | – |
| CC(=O)N[C@@H](CC(C)C)C(=O)N[C@@H](CC(C)C)C(=O)N[C@H](C=O)CCCNC(=N)N [leupeptin, N-acetyl-Leu-Leu-argininal] | – | – | cross cell membranes only poorly |
